Series [1] can be described thus: Experiment 7 (second): injection in white mice for about 15 days. In kind it is in vivo. The following applies: 5 per group, injected for about 15 days. The text has this:
Experimental animals: We classified 20 white mice in 4 groups every group has 5 mice.

The conditions of series [2]: cited from earlier work.

For the compound `NC[C@H]1CC[C@H](C(=O)O)CC1` [tranexamic acid], in series [1], the “survival of the mice” value is listed as “still alive”. Moreover, the “time of peak plasma concentration” value in series [2] (absorption via the GIT) is 2 h. Also, the excretion result in series [2] (chemical part) is reported as “excreted in the urine mainly as unchanged drug”. The protein binding entry in series [2] (in vivo) is listed as “very low”. In series [2] (via the GIT), the absorption entry is on record as “easily absorbed via the GIT”.

Source of the values: patent US20120082677A1, “COMPOSITIONS FOR THE TREATMENT OF HCV AND HBV” (priority 2010, published 2012).
